From ChEMBL document CHEMBL5518167, “Degradation of Polo-like Kinase 1 by the Novel Poly-Arginine N-Degron Pathway PROTAC Regulates Tumor Growth in Nonsmall Cell Lung Cancer” (J Med Chem, 2024)
Calls of active or inactive are those of the source. Where a SMILES comes first, the peptide text is derived from it.

Key:
A549 [1] = experiment: Cytotoxicity against human A549 cells at 0.8 to 50 uM incubated for 24 hrs by MTT assay; assay type: functional, cell-based; settings: dose 0.8-50 µM
PC-9 [2] = experiment: Cytotoxicity against human PC-9 cells at 0.8 to 50 uM incubated for 24 hrs by MTT assay; assay type: functional, cell-based; settings: dose 0.8-50 µM
HeLa [3] = experiment: Cytotoxicity against human HeLa cells assessed as change in morphology at 18 uM incubated for 24 hrs by phase contrast microscopic assay; assay type: functional, cell-based
NCI-H1975 [4] = experiment: Cytotoxicity against human NCI-H1975 cells at 0.8 to 50 uM incubated for 24 hrs by MTT assay; assay type: functional, cell-based; settings: dose 0.8-50 µM
NCI-H1975 [5] = experiment: Cytotoxicity against human NCI-H1975 cells assessed as change in morphology at 25 uM incubated for 24 hrs by phase contrast microscopic assay; assay type: functional, cell-based
PC-9 [6] = experiment: Cytotoxicity against human PC-9 cells assessed as change in morphology at 25 uM incubated for 24 hrs by phase contrast microscopic assay; assay type: functional, cell-based
A549 [7] = experiment: Cytotoxicity against human A549 cells assessed as change in morphology at 25 uM incubated for 24 hrs by phase contrast microscopic assay; assay type: functional, cell-based
[8] = target: Serine/threonine-protein kinase PLK1 (Homo sapiens, UniProt P53350); experiment: Binding affinity to PLK1 PBD (unknown origin) by ITC method
A549 [9] = experiment: Induction of cell cycle arrest in human A549 cells at 10 uM incubated for 24 hrs by PI staining based flow cytometry analysis; assay type: functional
PC-9 [10] = experiment: Induction of cell cycle arrest in human PC-9 cells at 10 uM incubated for 24 hrs by PI staining based flow cytometry analysis; assay type: functional
HeLa [11] = experiment: Induction of cell cycle arrest in human HeLa cells at 10 uM incubated for 24 hrs by PI staining based flow cytometry analysis; assay type: functional
NCI-H1975 [12] = experiment: Induction of cell cycle arrest in human NCI-H1975 cells at 10 uM incubated for 24 hrs by PI staining based flow cytometry analysis; assay type: functional
[13] = In vivo induction of PLK1 degradation in nude mouse xenografted with human NCI-H1975 cells assessed as reduction in PLK1 protein expression at 5 mg/kg, iv administered for every 3 days by Western blotting analysis; assay type: functional; design: scale not given: the % may be the effect or the level left
UBR/PLK1 (Homo sapiens) [14] = experiment: Protac activity at UBR/PLK1 in human HeLa cells assessed as PLK1 degradation at 50 uM incubated for 24 hrs by immunoblotting analysis
[15] = target: E3 ubiquitin-protein ligase UBR1 (Homo sapiens) (UniProt Q8IWV7); experiment: Binding affinity to UBR1 (unknown origin) expressed in HEK293T cells incubated for 3 hrs by pull-down assay; assay type: cell-based
UBR/PLK1 (Homo sapiens) [16] = experiment: Protac activity at UBR/PLK1 in human HeLa cells assessed as PLK1 degradation at 50 uM preincubated for 24 hrs followed by MG132 addition for 8 hrs by immunoblotting analysis; settings: time 32.0 hrs
UBR/PLK1 (Homo sapiens) [17] = experiment: Protac activity at UBR/PLK1 in human HeLa cells assessed as PLK1 degradation at 75 uM incubated for 24 hrs by immunoblotting analysis
[18] = target: E3 ubiquitin-protein ligase UBR2 (Homo sapiens) (UniProt Q8IWV8); experiment: Binding affinity to UBR2 (unknown origin) expressed in HEK293T cells incubated for 3 hrs by pull-down assay; assay type: cell-based
UBR/PLK1 (Homo sapiens) [19] = experiment: Protac activity at UBR/PLK1 in human HeLa cells assessed as PLK1 degradation at 50 uM after 24 to 48 hrs by immunoblotting analysis; settings: time 24-48 hrs
UBR/PLK1 (Homo sapiens) [20] = experiment: Protac activity at UBR/PLK1 in human HeLa cells assessed as PLK1 degradation at 50 uM by immunoblotting analysis; settings: time 2-48 hrs, TDE = time-dependent effect
UBR/PLK1 (Homo sapiens) [21] = experiment: Protac activity at UBR/PLK1 in human HeLa cells assessed as PLK1 degradation incubated for 24 hrs by immunoblotting analysis; settings: dose 25-100 µM
UBR/PLK1 (Homo sapiens) [22] = experiment: Protac activity at UBR/PLK1 in human HeLa cells assessed as PLK1 degradation at 100 uM incubated for 24 hrs by immunoblotting analysis

Chain of Serine/threonine-protein kinase PLK1 (P53350 whole entry): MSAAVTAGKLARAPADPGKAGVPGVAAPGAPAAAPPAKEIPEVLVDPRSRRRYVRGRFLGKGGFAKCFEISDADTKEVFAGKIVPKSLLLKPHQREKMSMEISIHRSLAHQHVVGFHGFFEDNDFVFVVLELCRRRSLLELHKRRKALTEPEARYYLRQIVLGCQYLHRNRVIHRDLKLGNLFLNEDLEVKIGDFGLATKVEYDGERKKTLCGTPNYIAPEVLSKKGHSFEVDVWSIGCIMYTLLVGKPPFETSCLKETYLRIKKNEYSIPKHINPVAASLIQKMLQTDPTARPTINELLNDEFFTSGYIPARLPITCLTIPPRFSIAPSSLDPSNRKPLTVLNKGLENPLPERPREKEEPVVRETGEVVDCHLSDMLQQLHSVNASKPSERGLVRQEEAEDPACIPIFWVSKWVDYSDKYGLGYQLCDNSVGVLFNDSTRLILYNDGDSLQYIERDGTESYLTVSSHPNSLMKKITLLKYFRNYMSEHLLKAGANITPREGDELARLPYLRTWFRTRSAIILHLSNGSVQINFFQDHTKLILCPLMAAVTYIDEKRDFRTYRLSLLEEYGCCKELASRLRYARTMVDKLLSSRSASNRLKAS
Chain of E3 ubiquitin-protein ligase UBR1 (Homo sapiens) (Q8IWV7 whole entry): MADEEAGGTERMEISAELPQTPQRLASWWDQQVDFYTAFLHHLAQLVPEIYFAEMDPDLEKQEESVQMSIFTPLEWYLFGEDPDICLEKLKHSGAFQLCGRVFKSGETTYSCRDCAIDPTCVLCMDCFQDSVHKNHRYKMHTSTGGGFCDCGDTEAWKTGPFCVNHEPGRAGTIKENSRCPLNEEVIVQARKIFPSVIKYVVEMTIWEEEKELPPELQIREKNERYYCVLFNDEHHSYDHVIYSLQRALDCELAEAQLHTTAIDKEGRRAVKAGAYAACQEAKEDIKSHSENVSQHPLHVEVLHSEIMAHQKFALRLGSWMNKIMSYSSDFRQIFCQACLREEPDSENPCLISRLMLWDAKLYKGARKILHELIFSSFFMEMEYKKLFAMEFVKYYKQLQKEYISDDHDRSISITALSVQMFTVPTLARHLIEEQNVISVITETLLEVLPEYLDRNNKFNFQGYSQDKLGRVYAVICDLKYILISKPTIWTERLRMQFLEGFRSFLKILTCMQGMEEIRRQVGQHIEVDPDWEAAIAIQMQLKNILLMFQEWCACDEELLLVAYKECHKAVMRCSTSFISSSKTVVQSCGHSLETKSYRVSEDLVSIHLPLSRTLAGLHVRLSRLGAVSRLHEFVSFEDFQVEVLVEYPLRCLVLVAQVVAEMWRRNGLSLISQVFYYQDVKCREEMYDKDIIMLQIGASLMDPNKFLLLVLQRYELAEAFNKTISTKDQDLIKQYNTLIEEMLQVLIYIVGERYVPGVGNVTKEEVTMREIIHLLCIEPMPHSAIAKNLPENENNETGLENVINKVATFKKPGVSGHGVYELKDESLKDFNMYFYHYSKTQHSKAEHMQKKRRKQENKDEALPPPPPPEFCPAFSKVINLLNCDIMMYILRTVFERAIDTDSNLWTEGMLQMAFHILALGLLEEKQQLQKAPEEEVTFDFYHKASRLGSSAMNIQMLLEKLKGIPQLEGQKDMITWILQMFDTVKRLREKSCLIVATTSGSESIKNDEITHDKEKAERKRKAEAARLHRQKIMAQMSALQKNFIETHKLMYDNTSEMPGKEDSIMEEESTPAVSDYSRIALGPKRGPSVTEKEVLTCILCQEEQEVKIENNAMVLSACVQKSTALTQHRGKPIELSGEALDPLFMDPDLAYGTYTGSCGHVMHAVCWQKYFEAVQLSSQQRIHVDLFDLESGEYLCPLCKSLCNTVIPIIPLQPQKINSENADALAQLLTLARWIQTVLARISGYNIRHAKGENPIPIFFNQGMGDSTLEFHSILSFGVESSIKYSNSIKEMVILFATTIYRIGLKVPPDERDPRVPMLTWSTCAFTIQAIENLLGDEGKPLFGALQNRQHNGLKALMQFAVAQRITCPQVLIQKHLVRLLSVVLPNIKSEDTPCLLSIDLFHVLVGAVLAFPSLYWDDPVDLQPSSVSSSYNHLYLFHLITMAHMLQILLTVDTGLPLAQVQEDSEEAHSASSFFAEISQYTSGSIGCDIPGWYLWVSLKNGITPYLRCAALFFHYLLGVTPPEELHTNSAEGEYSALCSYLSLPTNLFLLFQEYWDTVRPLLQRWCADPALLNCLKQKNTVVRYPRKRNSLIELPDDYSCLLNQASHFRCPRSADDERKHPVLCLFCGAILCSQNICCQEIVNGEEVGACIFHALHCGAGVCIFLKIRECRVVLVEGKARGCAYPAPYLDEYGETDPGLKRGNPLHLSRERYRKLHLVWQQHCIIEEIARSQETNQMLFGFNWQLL
Chain of E3 ubiquitin-protein ligase UBR2 (Homo sapiens) (Q8IWV8 whole entry): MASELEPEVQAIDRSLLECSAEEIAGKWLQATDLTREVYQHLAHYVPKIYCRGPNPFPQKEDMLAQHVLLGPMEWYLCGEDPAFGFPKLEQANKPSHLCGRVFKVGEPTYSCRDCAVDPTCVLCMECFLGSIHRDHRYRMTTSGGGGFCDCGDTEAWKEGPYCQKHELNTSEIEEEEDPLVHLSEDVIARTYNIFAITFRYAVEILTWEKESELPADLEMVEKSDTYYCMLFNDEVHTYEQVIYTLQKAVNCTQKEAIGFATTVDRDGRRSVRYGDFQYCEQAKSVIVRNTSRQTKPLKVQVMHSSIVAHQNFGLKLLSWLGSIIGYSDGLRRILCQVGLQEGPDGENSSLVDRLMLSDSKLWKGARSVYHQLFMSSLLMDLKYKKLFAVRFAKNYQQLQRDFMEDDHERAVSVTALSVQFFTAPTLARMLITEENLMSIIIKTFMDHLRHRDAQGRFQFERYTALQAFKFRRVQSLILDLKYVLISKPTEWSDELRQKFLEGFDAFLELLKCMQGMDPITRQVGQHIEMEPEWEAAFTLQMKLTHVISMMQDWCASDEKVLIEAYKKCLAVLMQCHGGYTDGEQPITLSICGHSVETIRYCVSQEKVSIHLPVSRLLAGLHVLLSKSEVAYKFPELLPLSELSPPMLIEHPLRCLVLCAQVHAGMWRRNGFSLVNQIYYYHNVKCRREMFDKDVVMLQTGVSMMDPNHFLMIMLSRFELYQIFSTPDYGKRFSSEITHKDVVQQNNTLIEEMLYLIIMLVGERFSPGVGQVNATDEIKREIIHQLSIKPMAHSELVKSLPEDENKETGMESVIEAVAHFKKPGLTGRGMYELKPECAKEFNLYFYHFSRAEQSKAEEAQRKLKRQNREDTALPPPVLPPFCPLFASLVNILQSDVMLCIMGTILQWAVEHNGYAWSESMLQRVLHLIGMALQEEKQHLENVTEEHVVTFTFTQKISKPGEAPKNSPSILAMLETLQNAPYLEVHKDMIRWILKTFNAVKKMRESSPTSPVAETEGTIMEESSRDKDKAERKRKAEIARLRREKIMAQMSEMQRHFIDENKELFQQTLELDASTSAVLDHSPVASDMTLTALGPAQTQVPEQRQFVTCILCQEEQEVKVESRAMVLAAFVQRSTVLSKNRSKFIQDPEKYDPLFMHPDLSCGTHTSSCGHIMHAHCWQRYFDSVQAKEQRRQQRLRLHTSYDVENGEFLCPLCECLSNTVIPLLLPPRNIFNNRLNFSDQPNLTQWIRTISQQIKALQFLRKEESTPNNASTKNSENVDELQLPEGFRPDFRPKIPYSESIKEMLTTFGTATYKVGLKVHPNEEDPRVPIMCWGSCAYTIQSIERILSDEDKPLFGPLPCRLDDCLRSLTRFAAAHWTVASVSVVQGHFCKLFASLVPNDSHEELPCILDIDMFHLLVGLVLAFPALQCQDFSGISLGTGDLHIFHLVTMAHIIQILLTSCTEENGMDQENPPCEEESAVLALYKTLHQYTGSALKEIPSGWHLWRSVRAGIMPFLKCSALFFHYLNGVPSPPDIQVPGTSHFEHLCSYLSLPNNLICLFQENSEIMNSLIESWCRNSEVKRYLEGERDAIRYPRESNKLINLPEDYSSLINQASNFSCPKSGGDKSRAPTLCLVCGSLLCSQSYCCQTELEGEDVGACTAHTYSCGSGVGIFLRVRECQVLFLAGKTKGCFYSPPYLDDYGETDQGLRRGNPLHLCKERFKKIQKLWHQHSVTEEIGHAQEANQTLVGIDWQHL

C[C@@H](OP(=O)(O)O)[C@@H]1NC(=O)[C@H](Cc2cncn2CCCCCCCCc2ccccc2)NC(=O)[C@@H](N)CCC(=O)NCCCC[C@@H](C(N)=O)NC1=O (HELM PEPTIDE1{E.[O=C([C@H](Cc1cncn1CCCCCCCCc1ccccc1)N[*:1])[*:2]].[C[C@@H](OP(=O)(O)O)[C@H](N[*:1])C(=O)[*:2]].K.[am]}$PEPTIDE1,PEPTIDE1,1:R3-4:R3$$$V2.0)
inactive: Activity (A549 [1]) | Activity (PC-9 [2]) | Activity (HeLa [3]) | Activity (NCI-H1975 [4]) | Activity (NCI-H1975 [5]) | Activity (PC-9 [6]) | Activity (A549 [7])

CC(C)C[C@H](NC(=O)[C@@H]1CCCN1C(=O)CCCCCNC(=O)[C@H](CCCNC(=N)N)NC(=O)[C@H](CCCNC(=N)N)NC(=O)[C@H](CCCNC(=N)N)NC(=O)[C@H](CCCNC(=N)N)NC(=O)[C@H](CCCNC(=N)N)NC(=O)[C@H](CCCNC(=N)N)NC(=O)[C@H](CCCNC(=N)N)NC(=O)[C@H](CCCNC(=N)N)NC(=O)[C@H](CCCNC(=N)N)NC(=O)[C@H](CCCNC(=N)N)NC(=O)[C@H](CCCNC(=N)N)NC(=O)[C@@H](N)CCCNC(=N)N)C(=O)N[C@@H](Cc1cnc[nH]1)C(=O)N[C@@H](CO)C(=O)N[C@H](C(N)=O)[C@@H](C)OP(=O)(O)O
2.2 µM: Kd [8]

N=C(N)NCCC[C@H](NC(=O)[C@H](CCCNC(=N)N)NC(=O)[C@H](CCCNC(=N)N)NC(=O)[C@H](CCCNC(=N)N)NC(=O)[C@H](CCCNC(=N)N)NC(=O)[C@H](CCCNC(=N)N)NC(=O)[C@H](CCCNC(=N)N)NC(=O)[C@H](CCCNC(=N)N)NC(=O)[C@H](CCCNC(=N)N)NC(=O)[C@H](CCCNC(=N)N)NC(=O)[C@H](CCCNC(=N)N)NC(=O)[C@@H](N)CCCNC(=N)N)C(N)=O
inactive: Activity (A549 [1]) | Activity (A549 [9]) | Activity (PC-9 [10]) | Activity (PC-9 [2]) | Activity (HeLa [3]) | Activity (NCI-H1975 [4]) | Activity (HeLa [11]) | Activity (NCI-H1975 [5]) | Activity (PC-9 [6]) | Activity (NCI-H1975 [12]) | Activity (A549 [7])

C=CC(=O)Nc1cc(Nc2nccc(-c3cn(C)c4ccccc34)n2)c(OC)cc1N(C)CCN(C)C [OSIMERTINIB]
>60%: Activity [13]

CC(C)C[C@H](NC(=O)[C@H]1CCCN1C(=O)CCCCCNC(=O)[C@H](CCCNC(=N)N)NC(=O)[C@H](CCCNC(=N)N)NC(=O)[C@H](CCCNC(=N)N)NC(=O)[C@H](CCCNC(=N)N)NC(=O)[C@H](CCCNC(=N)N)NC(=O)[C@H](CCCNC(=N)N)NC(=O)[C@H](CCCNC(=N)N)NC(=O)[C@H](CCCNC(=N)N)NC(=O)[C@H](CCCNC(=N)N)NC(=O)[C@H](CCCNC(=N)N)NC(=O)[C@H](CCCNC(=N)N)NC(=O)[C@@H](N)CCCNC(=N)N)C(=O)N[C@@H](Cc1cnc[nH]1)C(=O)N[C@@H](CO)C(=O)N[C@H](C(N)=O)[C@@H](C)OP(=O)(O)O
70%: Activity (UBR/PLK1 (Homo sapiens) [17]) | Activity (UBR/PLK1 (Homo sapiens) [22])
active: Activity [15] | Activity [18] | Activity (UBR/PLK1 (Homo sapiens) [20]) Tde | Activity (UBR/PLK1 (Homo sapiens) [21]) Dose-Dependent Effect
inactive: Activity (UBR/PLK1 (Homo sapiens) [16])
60%: Activity (UBR/PLK1 (Homo sapiens) [14])
90%: Activity (UBR/PLK1 (Homo sapiens) [19])
